We go through 18 compounds from ChEMBL document CHEMBL1129392, “Design, synthesis, and evolution of a novel, selective, and orally bioavailable class of thrombin inhibitors: P1-argininal derivatives incorporating P3-P4 lactam sulfonamide moieties” (J Med Chem, 1996).

Experiment [1] addresses T1, Prothrombin (Homo sapiens, UniProt P00734). Put plainly: In vitro for inhibition of serine protease thrombin(FIIa).
Experiment [2] concerns the target T2, Serine protease 1 (Homo sapiens, UniProt P07477). Put plainly: In vitro for inhibition of serine protease Trypsin.
Experiment [3] concerns the target T3, Coagulation factor X (Homo sapiens, UniProt P00742).
Description: In vitro for inhibition of Coagulation factor X
For another experiment, the target named is T4, Trypsin II (Bos taurus, UniProt Q29463).
T4 sequence (Q29463 whole entry): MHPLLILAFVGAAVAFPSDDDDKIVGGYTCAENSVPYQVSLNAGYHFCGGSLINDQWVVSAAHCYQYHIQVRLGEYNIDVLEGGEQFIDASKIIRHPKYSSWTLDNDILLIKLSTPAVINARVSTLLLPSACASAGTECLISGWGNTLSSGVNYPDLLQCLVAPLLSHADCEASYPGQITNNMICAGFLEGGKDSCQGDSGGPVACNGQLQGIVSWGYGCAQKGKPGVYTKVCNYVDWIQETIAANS
Put plainly: compound was tested in vitro for inhibition of serine protease Trypsin.

The target of experiment [4] is T1, Prothrombin. Put plainly: compound was tested in vitro for inhibition of serine protease thrombin(FIIa).
In experiment [5] the target is T3, Coagulation factor X. Put plainly: compound was tested in vitro for inhibition of Coagulation factor X.
Experiment [6] concerns the target T3, Coagulation factor X. Put plainly: compound was tested in vitro for inhibition of Coagulation factor X; inactive.
For experiment [7], the target named is T1, Prothrombin. Put plainly: compound was tested in vitro for inhibition of serine protease thrombin (FIIa); inactive.
Experiment [8] addresses T2, Serine protease 1. Put plainly: compound was tested in vitro for inhibition of serine protease Trypsin; inactive.

T2 sequence (P07477 whole entry): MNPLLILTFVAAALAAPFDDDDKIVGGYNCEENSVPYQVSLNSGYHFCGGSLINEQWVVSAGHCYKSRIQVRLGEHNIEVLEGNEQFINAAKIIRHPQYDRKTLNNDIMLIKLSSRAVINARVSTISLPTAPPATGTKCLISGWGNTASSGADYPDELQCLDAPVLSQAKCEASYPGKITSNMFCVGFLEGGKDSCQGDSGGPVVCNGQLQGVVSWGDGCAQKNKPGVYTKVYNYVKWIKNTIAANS
T3 sequence (P00742 41-179 limits assumed): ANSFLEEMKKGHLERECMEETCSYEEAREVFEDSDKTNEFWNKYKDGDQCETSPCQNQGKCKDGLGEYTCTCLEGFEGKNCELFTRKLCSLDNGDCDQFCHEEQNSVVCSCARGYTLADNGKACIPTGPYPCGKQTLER
T3 sequence (P00742 235-488 limits assumed): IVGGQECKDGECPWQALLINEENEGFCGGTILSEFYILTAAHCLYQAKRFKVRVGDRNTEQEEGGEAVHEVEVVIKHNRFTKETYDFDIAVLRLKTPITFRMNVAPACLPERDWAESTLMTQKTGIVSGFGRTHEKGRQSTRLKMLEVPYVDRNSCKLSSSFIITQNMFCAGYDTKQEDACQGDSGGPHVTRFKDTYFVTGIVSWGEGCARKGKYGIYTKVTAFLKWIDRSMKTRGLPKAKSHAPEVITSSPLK

In general, IC50 refers to the point on the concentration scale where inhibition reaches its midpoint. Higher therefore signals weaker potency in that assay. Take `N=C(N)C1CCC[C@H](NC(=O)CN2CCC[C@H](NS(=O)(=O)c3ccccc3)C2=O)C1O` (stereo not given in full): the results for the IC50 against Prothrombin [1], at Serine protease 1 [2] and on Coagulation factor X [3] were 159 nM, 770 nM and 1100 nM, respectively.

In the case of `N=C(N)C1CCC[C@H](NC(=O)CN2CCC[C@H](NS(=O)(=O)c3cccc4ccccc34)C2=O)[C@@H]1O` (stereo not given in full), the IC50 against Trypsin II was 1020 nM; on Prothrombin [1], 111 nM; on Coagulation factor X [3] it was 2500 nM.

Broadly, the Ki is the equilibrium dissociation constant of an inhibitor or competing ligand from its target. High values mean weaker binding, low ones tighter binding. As to `N=C(N)C1CCC[C@H](NC(=O)CN2CCCC[C@H](NS(=O)(=O)Cc3ccccc3)C2=O)C1O` (stereo not given in full), the inhibition constant Ki on Prothrombin [4] is 0.54 nM. Also, the IC50 against Prothrombin [1] was determined as 0.71 nM; against Serine protease 1 [2] it was 74.5 nM; against Coagulation factor X [3] it was 20.6 nM.

With `N=C(N)C1CCC[C@H](NC(=O)CN2CCC[C@@H](NS(=O)(=O)Cc3ccccc3)C2=O)C1O` (stereo not given in full), the IC50 at Prothrombin [1] was determined as 157 nM; on Serine protease 1 [2], 467 nM; on Coagulation factor X [3], 2500 nM.

Consider `CC(C)(C)OC(=O)N[C@H]1CCCN(CC(=O)N[C@H]2CCCC(C(=N)N)C2O)C1=O` (stereo not given in full), for which the IC50 on Serine protease 1 [2] was determined as 16800 nM; against Coagulation factor X [3], 2500 nM.

Turning to `CN[C@H](Cc1ccccc1)C(=O)N1CCC[C@@H]1C(=O)N[C@H]1CCCC(C(=N)N)C1O` (stereo not given in full), the half-maximal inhibitory concentration (IC50) against Prothrombin [1] is 0.7 nM; at Serine protease 1 [2], 1.52 nM; against Coagulation factor X [3], greater than 2500 nM.

For `N=C(N)C1CCCC(NC(=O)CN2CC[C@H](NS(=O)(=O)Cc3ccccc3)C2=O)C1O` (stereo not given in full), the half-maximal inhibitory concentration (IC50) came out at 2500 nM at Coagulation factor X [5], 125 nM against Prothrombin [4] and 538 nM on Trypsin II.

In turn, `N=C(N)C1CCC[C@H](NC(=O)CN2CCC[C@H](NS(=O)(=O)Cc3ccccc3)C2=O)C1O` (stereo not given in full) returned an inhibitory constant (Ki) at Prothrombin [4] of 1.01 nM. Further, the IC50 against Prothrombin [1] was 6.2 nM; on Serine protease 1 [2] it was 791 nM; on Coagulation factor X [3], 2500 nM.

In the case of `CC(C(=O)N[C@H]1CCCC(C(=N)N)C1O)N1CCC[C@H](NS(=O)(=O)Cc2ccccc2)C1=O` (stereo not given in full), the IC50 at Trypsin II was 293 nM; against Prothrombin [1], 286 nM; against Coagulation factor X [3], 2500 nM.

Take `CCCCS(=O)(=O)N[C@H]1CCCN(CC(=O)N[C@H]2CCCC(C(=N)N)C2O)C1=O` (stereo not given in full): the IC50 on Trypsin II was 2500 nM; at Prothrombin [1], 709 nM; against Coagulation factor X [3] it was 2500 nM.

As to `N=C(N)C1CCC[C@H](NC(=O)CN2CCCC[C@H](NS(=O)(=O)c3ccccc3)C2=O)C1O` (stereo not given in full), the half-inhibitory concentration (IC50) was determined as 14.2 nM against Prothrombin [1], 16.6 nM against Serine protease 1 [2] and 479 nM against Coagulation factor X [3].

`N=C(N)C1CCC[C@H](NC(=O)CN2CCC[C@H](NC(=O)NS(=O)(=O)c3ccccc3)C2=O)C1O` (stereo not given in full): the half-maximal inhibitory concentration (IC50) entry against Coagulation factor X [6], against Prothrombin [7] and against Serine protease 1 [8] was “Not Active” throughout.

For the compound `C[C@H](C(=O)N[C@H]1CCCC(C(=N)N)C1O)N1CCCC[C@H](NS(=O)(=O)Cc2ccccc2)C1=O` (stereo not given in full), the values for the half-maximal inhibitory concentration (IC50) result on Coagulation factor X [6], against Prothrombin [1] and against Serine protease 1 [2] were “Not Active”, greater than 2500 nM and greater than 2500 nM, respectively.

Take `CCCC(CCC)C(=O)N[C@@H](CC(=O)OC)C(=O)N1CCC[C@@H]1C(=O)N[C@H]1CCCC(C(=N)N)C1O` (stereo not given in full): the values for the concentration for half-maximal inhibition (IC50) on Prothrombin [1] and on Serine protease 1 [2] were 1.1 nM and 1.36 nM, respectively.

Consider `COC(=O)c1ccccc1CS(=O)(=O)N[C@H]1CCCCN(CC(=O)N[C@H]2CCCC(C(=N)N)C2O)C1=O` (stereo not given in full), for which, at Prothrombin [4], the inhibition constant (Ki) came to 0.85 nM. Also, the concentration for half-maximal inhibition (IC50) against Prothrombin [1] came to 1.12 nM; against Serine protease 1 [2] it was 137 nM; against Coagulation factor X [3] it was 471 nM.

As to `N=C(N)C1CCC[C@H](NC(=O)CN2CCC[C@H](NS(=O)(=O)NC3CCCCC3)C2=O)C1O` (stereo not given in full), the results for the IC50 on Prothrombin [1], at Serine protease 1 [2] and against Coagulation factor X [3] were 235 nM, 147 nM and 1950 nM, respectively.

Take `N=C(N)C1CCC[C@H](NC(=O)CN2CCC[C@H](NS(=O)(=O)CCc3ccccc3)C2=O)C1O` (stereo not given in full): the concentration for half-maximal inhibition (IC50) on Prothrombin [1] turned out to be 420 nM; against Serine protease 1 [2], 2500 nM; at Coagulation factor X [3], 2500 nM.

Consider `N=C(N)C1CCC[C@H](NC(=O)CN2CCC[C@H](NC(=O)Cc3ccccc3)C2=O)C1O` (stereo not given in full), for which the IC50 entry against Coagulation factor X [6] is “Not Active”; on Trypsin II it was greater than 2500 nM; on Prothrombin [1], 2500 nM.
